Columns and labels:
5HT reuptake = conditions: therapeutic models, WO 01/14330; cited from earlier work
rodents = conditions: cited from earlier work
D2 receptors = D2 receptors (Homo sapiens, UniProt P14416); conditions: therapeutic models, WO 01/14330; cited from earlier work
[1] = Comparative equilibrium solubility of salts of compound 1; conditions: pH listed with the equilibrium solubility
[2] = in vivo; cited from earlier work

D2 receptors, sequence (P14416 whole entry): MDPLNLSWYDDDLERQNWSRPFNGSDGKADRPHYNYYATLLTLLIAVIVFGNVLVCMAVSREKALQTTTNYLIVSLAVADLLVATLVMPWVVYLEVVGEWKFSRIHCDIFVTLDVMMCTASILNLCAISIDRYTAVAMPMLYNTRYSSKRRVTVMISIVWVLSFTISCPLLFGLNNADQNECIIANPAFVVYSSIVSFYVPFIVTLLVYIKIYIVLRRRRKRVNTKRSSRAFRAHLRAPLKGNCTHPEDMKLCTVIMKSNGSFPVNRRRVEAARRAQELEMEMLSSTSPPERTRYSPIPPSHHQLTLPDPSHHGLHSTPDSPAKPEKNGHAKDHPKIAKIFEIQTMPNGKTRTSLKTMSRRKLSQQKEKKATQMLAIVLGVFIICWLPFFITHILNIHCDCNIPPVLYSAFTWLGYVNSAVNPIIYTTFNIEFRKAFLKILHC

SMILES	inhibitory activity against 5HT reuptake (5HT reuptake)	propensity to induce catalepsy (rodents)	antagonistic activity at D2 receptors (D2 receptors)	pH ([1]; listed as freebase (1))	activity in therapeutic models sensitive to clinically relevant antipsychotics, antidepressants, anxiolytics, and Parkinson's disease [2]	pH ([1]; listed as glucuronate (2))
CC1Oc2c(cccc2N2CCN(CCCc3c[nH]c4ccc(F)cc34)CC2)NC1=O (stereo not drawn) [compound 1, 8-{4-[3-(5-fluoro-1H-indol-3-yl)-propyl]-piperazin-1-yl}-2-methyl-4H-benzo[1,4]oxazin-3-one]	inhibitory activity against 5HT reuptake	low propensity to induce catalepsy	antagonistic activity at D2 receptors	4.72	active	–
CC1Oc2c(cccc2N2CCN(CCCc3c[nH]c4ccc(F)cc34)CC2)NC1=O (stereo not drawn) [compound 2]	–	–	–	–	–	4.25

Reference: patent publication US7709024B2, “Sustained-release formulation and uses thereof” (Solvay Pharmaceuticals B.V., priority 2005, dated 2010)
